Experimental data: article PMC12267471, “Discovery of natural scaffolds as HER2 inhibitors for breast cancer: virtual screening, molecular dynamics, and biological characterization with selectivity profiling” (Scientific Reports, 2025)

Legend:
EGFR = system: EGFR; set-up: method as in earlier work; conditions: Table S1; cited from earlier work
ERBB4 = system: ERBB4; set-up: method as in earlier work; conditions: Table S1; cited from earlier work
ERBB2 = system: ERBB2; set-up: method as in earlier work; conditions: Table S1; cited from earlier work
HER2 kinase = target: T1, HER2 kinase (Homo sapiens, UniProt P04626); assay: Z'-LYTE Kinase Assay-Tyr6 Peptide biochemical HER2 kinase assay; conditions: for IC50: Tyr6 peptide substrate, read-out: IC50, inhibition of ATP-induced HER2 phosphorylation
T1 construct: HER2 purified kinase domain (amino acids 676–1255); purchased Thermo Fischer Scientific PV3590
T1 sequence (P04626 676-1255): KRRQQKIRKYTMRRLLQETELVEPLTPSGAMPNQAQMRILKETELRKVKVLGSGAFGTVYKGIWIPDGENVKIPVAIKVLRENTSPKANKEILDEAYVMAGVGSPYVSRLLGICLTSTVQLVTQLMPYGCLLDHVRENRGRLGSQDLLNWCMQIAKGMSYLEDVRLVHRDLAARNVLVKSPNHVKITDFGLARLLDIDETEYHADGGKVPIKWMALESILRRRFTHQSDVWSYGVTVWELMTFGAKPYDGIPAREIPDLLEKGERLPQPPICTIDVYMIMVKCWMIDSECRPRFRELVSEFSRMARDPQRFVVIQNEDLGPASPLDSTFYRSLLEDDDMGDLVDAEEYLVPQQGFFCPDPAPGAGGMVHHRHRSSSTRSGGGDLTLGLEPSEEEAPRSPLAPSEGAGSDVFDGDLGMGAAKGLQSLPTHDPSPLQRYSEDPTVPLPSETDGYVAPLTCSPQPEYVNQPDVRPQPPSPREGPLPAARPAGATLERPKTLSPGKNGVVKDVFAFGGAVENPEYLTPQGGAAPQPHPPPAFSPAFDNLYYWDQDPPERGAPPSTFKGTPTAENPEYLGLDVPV
Description: The Z’-LYTE™ Kinase Assay-Tyr6 Peptide kit (Thermo Fischer Scientific™, Madison, WI, USA) was employed to evaluate the potential of selected natural products to suppress the catalytic activity of HER2 kinase. The assay adopts a Fluorescence Resonance Energy Transfer (FRET) based method in a cell-free coupled-enzyme format with no use of antibodies. The assay method mainly relies on the difference in sensitivity of phosphorylated and non-phosphorylated peptides to proteolytic cleavage. This method is a ratio metric method that calculates the Emission Ratio of donor emission divided by acceptor emission after excitation of the donor fluorophore at 400 nm. In this assay, 20 µL/well reactions containing kinase buffer, 200 µM ATP, 4µM Z’-LYTE Tyr6 Peptide substrate, 2500 ng/mL HER2 kinase, and drugs of interest functioning as inhibitors were set up in 96-well plates. Each well received 10 µL of site-specific protease development solution after one hour of room temperature incubation. The incubation continued for a full hour. Following process termination, the kinase inhibitory activity and/or peptide substrate cleavage status were assessed using a plate reader (BioTek FLx800™) to measure the ratio of fluorescence signal at 445 nm (coumarin)/520 nm (fluorescein).
The IC50 value for each natural product was computed using XLfit® 4.1 software (ID Business Solutions Inc. (IDBS), Emeryville CA), applying non-linear regression of log concentration against the percentage of HER2 inhibition.
Utilizing the Z’-LYTE™ Kinase Assay-Tyr6 Peptide kit as a cell-free system for evaluating the inhibitory activity of HER2, the five natural products were evaluated for their capacity to inhibit HER2 phosphorylation. Since its kinase catalysis is necessary for all HER2-mediated activities, we attempted at this initial stage to validate the HER2 inhibitory ability of the five in silico hits directly on the HER2 purified kinase domain (amino acids 676–1255), that was in vitro phosphorylated to attain the maximum level of intrinsic kinase activity. In this assay, the substrate was Z’-LYTE™ Tyr6 peptide; thus, the changes in its phosphorylation can directly correlate with the HER2 kinase activity. In the meantime, tyrphostin AG 1478 was used as a positive control to ensure the validity of the assay. Lapatinib (Tykerb®) was included as a second positive control to benchmark virtual hits’ performance against clinically approved standards.

SKBR3 cells [1] = assay: MTT proliferation assay, SKBR3; format: cell-based, human
BT-474 cells [2] = assay: MTT proliferation assay, BT-474; format: cell-based, human
BT-474 cells [3] = assay: Wound healing assay, BT-474; format: cell-based; conditions: Homo sapiens
Protocol: (§1) In a sterile flat-bottom 24-well plate, SKBR3 and BT-474 breast cancer cells were plated at a density of 1 × 10^5 cells/well. […] Wounds were then inflicted across each cell monolayer using a sterile 200 µL pipette tip. Media was aspirated, and cells were washed twice with PBS to remove floating cells and cell debris. Fresh serum-free media was placed up against the well wall to cover the bottom of the well and prevent further cell detachment. Incubation of cells was resumed for five hours at 37 °C in a humidified CO2 incubator. Subsequently, the media were substituted with fresh ones containing various doses of liquiritin, oroxin B, or DMSO as a vehicle control (3 replicates/group) along with EGF (100 ng/mL) as a scattering factor. Wound closure was microscopically monitored in vehicle-treated control wells, and the time frame for wound closure was determined to be 72 h. Before the closure of wounds in the vehicle-treated control wells, the media were removed, cells were washed with PBS and completely fixed using cold methanol for 20 min at 4 °C. An inverted VistaVision microscope was used to take pictures of the wounds monitored at zero and 72 h with a VistaVision Still camera (VWR, Radnor, PA).
(§2) Results were expressed as a percentage of cell migration according to the following Equation[16]: [drawing 2]
(§3) Where Tt is the wound thickness in treatment wells, TDMSO is the thickness of the wound in control wells treated by DMSO, and Tº is the thickness of the wound at zero time. Wound thickness was calculated in three or more randomly selected fields per treatment group.

MCF10A cells = assay: MTT cytotoxicity assay, non-tumorigenic MCF10A; format: cell-based, human
SKBR3 cells [4] = assay: Wound healing assay, SKBR3; format: cell-based; conditions: Homo sapiens
Protocol: as §1, §2, §3

[5] = Homo sapiens, BT-474, MTT, 48 h (Table S8), read-out: Cell growth inhibition IC50
[6] = Homo sapiens, SK-BR-3, SKBR3, MTT, 48 h (Table S8), read-out: Cell growth inhibition IC50
[7] = Homo sapiens, BT-474, Table S9, read-out: IC50

**Q.** Which results are given for `COc1cc2ncnc(Nc3ccc(F)c(Cl)c3)c2cc1NC(=O)/C=C/CN1CCCCC1` [Dacomitinib]?
**A.** IC50 (EGFR): 0.006 µM; IC50 (ERBB4): […]; IC50 (ERBB2): […]

**Q.** For `OC[C@H]1O[C@@H](Oc2cc3c(O[C@@H]4O[C@H](CO)[C@@H](O)[C@H](O)[C@H]4O)cc(O)cc3[o+]c2-c2cc(O)c(O)c(O)c2)[C@H](O)[C@@H](O)[C@@H]1O` [Delphin, Delphinidin-3,5-O-diglucoside], which “suppression of HER2 phosphorylation” value (HER2 kinase; cell-free Z'-LYTE) is on record?
**A.** no discernible suppression

**Q.** What does the source list for `CS(=O)(=O)CCNCc1ccc(-c2ccc3ncnc(Nc4ccc(OCc5cccc(F)c5)c(Cl)c4)c3c2)o1` [Lapatinib, reference compound]?
**A.** inhibition at 0.015 µM (HER2 kinase; at 15 nM): 54%; inhibition at 0.03 µM (HER2 kinase; at 30 nM): 75%; IC50 (SKBR3 cells [1]; Homo sapiens, SK-BR-3, SKBR3, MTT, 48 h, read-out: IC50): 0.153 µM; IC50 (BT-474 cells [2]; [5]): 0.117 µM; IC50 (BT-474 cells [2]; Homo sapiens, BT-474, MTT, 48 h, read-out: IC50): 0.118 µM

**Q.** What does the source list for `C[C@@H]1O[C@@H](OC[C@H]2O[C@@H](Oc3cc(O)c4c(=O)cc(-c5ccc(O)cc5)oc4c3)[C@H](O[C@@H]3O[C@@H](C)[C@H](O)[C@@H](O)[C@H]3O)[C@@H](O)[C@@H]2O)[C@H](O)[C@H](O)[C@H]1O` [Ligustroflavone]?
**A.** IC50 (HER2 kinase; cell-free Z'-LYTE): 0.0365 µM; IC50 (SKBR3 cells [1]; SKBR3, MTT, 48 h (Table S8), read-out: Cell growth inhibition IC50): 12.7 µM; IC50 (BT-474 cells [2]; BT-474, MTT, 48 h (Table S8), read-out: Cell growth inhibition IC50): 6 µM

**Q.** Which IC50 (HER2 kinase; cell-free Z'-LYTE) does the source give for `OC[C@H]1O[C@@H](Oc2cc(O)cc(/C=C/c3ccc(O[C@@H]4O[C@H](CO)[C@@H](O)[C@H](O)[C@H]4O)cc3O)c2)[C@H](O)[C@@H](O)[C@@H]1O` [Mulberroside A] here?
**A.** 0.0377 µM

**Q.** And the IC50 (SKBR3 cells [1]; [6])?
**A.** 11 µM

**Q.** And the IC50 (BT-474 cells [2]; [5])?
**A.** 5.9 µM

**Q.** What does the source list for `O=c1cc(-c2ccccc2)oc2cc(O[C@@H]3O[C@H](CO[C@@H]4O[C@H](CO)[C@@H](O)[C@H](O)[C@H]4O)[C@@H](O)[C@H](O)[C@H]3O)c(O)c(O)c12` [Oroxin B]?
**A.** IC50 (BT-474 cells [3]; BT-474, read-out: IC50, cell migration): > 20 µM; inhibition at 3 µM (BT-474 cells [3]; BT-474, 3 µM, 72 h, read-out: inhibition of cell migration): 18.9%; inhibition at 7 µM (BT-474 cells [3]; BT-474, 7 µM, 72 h, read-out: inhibition of cell migration): 26.5%; inhibition at 10 µM (BT-474 cells [3]; BT-474, 10 µM, 72 h, read-out: inhibition of cell migration): 29.5%; inhibition at 20 µM (BT-474 cells [3]; BT-474, 20 µM, 72 h, read-out: inhibition of cell migration): 38.6%; IC50 (HER2 kinase; cell-free Z'-LYTE): 0.0121 µM; IC50 (SKBR3 cells [1]; [6]): 11.9 µM; IC50 (SKBR3 cells [1]; Homo sapiens, SK-BR-3, SKBR3, Table S9, read-out: IC50): 11.9 ± 0.8 µM; IC50 (BT-474 cells [2]; [5]): 6.9 µM; IC50 (BT-474 cells [2]; [7]): 6.9 ± 0.7 µM; IC50 (MCF10A cells; Homo sapiens, MCF-10A, MCF10A, MTT, 24 h): 53 ± 2.1 µM; selectivity index (SI) (MCF10A cells; IC50 MCF10A / IC50 BT-474): 7.7; selectivity index (SI) (MCF10A cells; IC50 MCF10A / IC50 SKBR3): 4.5; IC50 (SKBR3 cells [4]; SK-BR-3, read-out: IC50, cell migration): > 36 µM; inhibition at 6 µM (SKBR3 cells [4]; SK-BR-3, SKBR3, 6 µM, 72 h, read-out: inhibition of cell migration): 23.5%; inhibition at 12 µM (SKBR3 cells [4]; SK-BR-3, SKBR3, 12 µM, 72 h, read-out: inhibition of cell migration): 26.5%; inhibition at 18 µM (SKBR3 cells [4]; SK-BR-3, SKBR3, 18 µM, 72 h, read-out: inhibition of cell migration): 31.1%; inhibition at 36 µM (SKBR3 cells [4]; SK-BR-3, SKBR3, 36 µM, 72 h, read-out: inhibition of cell migration): 34.8%

**Q.** With `CN[C@@H]1C[C@H]2O[C@@](C)([C@@H]1OC)n1c3ccccc3c3c4c(c5c6ccccc6n2c5c31)C(=O)NC4` [Staurosporine, reference compound] as the compound, how does the IC50 (BT-474 cells [2]; [5]) read?
**A.** 3.2 µM

**Q.** And the IC50 (BT-474 cells [2]; [7])?
**A.** 3.2 ± 0.3 µM
